Data published in US20220364989A1, “METHOD FOR MEASURING PHOTOTOXICITY OR PHOTOALLERGY AND REAGENT FOR USE THEREIN” (FUJIFILM Corporation, priority 2018, published 2022).

Columns and labels:
[1] = NAC depletion under and without ultraviolet irradiation, HPLC with fluorescence detection (284 nm excitation, 333 nm fluorescence)
[2] = Average score of NAC and NAL depletion and phototoxicity or photoallergy determination, fluorescence detection
[3] = NAC depletion under and without ultraviolet irradiation, HPLC with UV detection (281 nm)
[4] = NAL depletion under and without ultraviolet irradiation, HPLC with fluorescence detection (284 nm excitation, 333 nm fluorescence)
[5] = Average score of NAC and NAL depletion and phototoxicity or photoallergy determination, UV detection
[6] = NAL depletion under and without ultraviolet irradiation, HPLC with UV detection (281 nm)
[7] = photoallergic compound concentration 0.05 mg/mL
[8] = photoallergic compound concentration 0.2 mg/mL
[9] = photoallergic compound concentration 0.5 mg/mL
[10] = without light irradiation, photoallergic compound concentration 0.05 mg/mL
[11] = without light irradiation, photoallergic compound concentration 0.2 mg/mL
[12] = without light irradiation, photoallergic compound concentration 0.5 mg/mL
[13] = under light irradiation, photoallergic compound concentration 0.05 mg/mL
[14] = under light irradiation, photoallergic compound concentration 0.2 mg/mL
[15] = under light irradiation, photoallergic compound concentration 0.5 mg/mL
[16] = without light irradiation, single compound
[17] = 25° C. 24 hours light-shielded, test substance solution 1 mmol/L
[18] = 2,000 μW/cm^2 for 1 hour then 25° C. 23 hours, test substance solution 1 mmol/L
[19] = average of NAC and NAL depletion

SMILES: NS(=O)(=O)c1cc2c(cc1Cl)NCNS2(=O)=O [2-4]
- Difference in depletion (under light irradiation - without light irradiation) NAC (%) [1, 7]: 21.9%
- Difference in depletion (under light irradiation - without light irradiation) NAC (%) [1, 8]: 60.2%
- Difference in depletion (under light irradiation - without light irradiation) NAC (%) [1, 9]: 85.9%
- NAC Depletion (%) under light irradiation [1, 7]: 21.9%
- NAC Depletion (%) under light irradiation [1, 8]: 60.2%
- NAC Depletion (%) under light irradiation [1, 9]: 85.9%
- NAC Depletion (%) without light irradiation [1, 10]: 0.0%
- NAC Depletion (%) without light irradiation [1, 11]: 0.0%
- NAC Depletion (%) without light irradiation [1, 12]: 0.0%
- Difference in depletion (under light irradiation - without light irradiation) Average score (%) [2, 7]: 12.3%
- Difference in depletion (under light irradiation - without light irradiation) Average score (%) [2, 8]: 32.1%
- Difference in depletion (under light irradiation - without light irradiation) Average score (%) [2, 9]: 45.8%
- Average score (%) under light irradiation [2, 7]: 12.3%
- Average score (%) under light irradiation [2, 8]: 32.1%
- Average score (%) under light irradiation [2, 9]: 45.8%
- Average score (%) without light irradiation [2, 10]: 0.0%
- Average score (%) without light irradiation [2, 11]: 0.0%
- Average score (%) without light irradiation [2, 12]: 0.0%
- Difference in depletion (under light irradiation - without light irradiation) NAC (%) [3, 7]: 20.9%
- Difference in depletion (under light irradiation - without light irradiation) NAC (%) [3, 8]: 60.1%
- Difference in depletion (under light irradiation - without light irradiation) NAC (%) [3, 9]: 84.5%
- NAC Depletion (%) under light irradiation [3, 13]: 20.9%
- NAC Depletion (%) under light irradiation [3, 14]: 60.1%
- NAC Depletion (%) under light irradiation [3, 15]: 84.5%
- NAC Depletion (%) without light irradiation [3, 10]: 0.0%
- NAC Depletion (%) without light irradiation [3, 11]: 0.0%
- NAC Depletion (%) without light irradiation [3, 12]: 0.0%
- Difference in depletion (under light irradiation - without light irradiation) NAL (%) [4, 7]: 2.6%
- Difference in depletion (under light irradiation - without light irradiation) NAL (%) [4, 8]: 4.0%
- Difference in depletion (under light irradiation - without light irradiation) NAL (%) [4, 9]: 5.6%
- NAL Depletion (%) under light irradiation [4, 7]: 2.6%
- NAL Depletion (%) under light irradiation [4, 8]: 4.0%
- NAL Depletion (%) under light irradiation [4, 9]: 5.6%
- NAL Depletion (%) without light irradiation [4, 10]: 0.0%
- NAL Depletion (%) without light irradiation [4, 11]: 0.0%
- NAL Depletion (%) without light irradiation [4, 12]: 0.0%
- Difference in depletion (under light irradiation - without light irradiation) Average score (%) [5, 8]: 30.8%
- Difference in depletion (under light irradiation - without light irradiation) Average score (%) [5, 9]: 44.5%
- Average score (%) under light irradiation [5, 14]: 30.8%
- Average score (%) under light irradiation [5, 15]: 44.5%
- Average score (%) without light irradiation [5, 10]: 0.0%
- Average score (%) without light irradiation [5, 11]: 0.0%
- Average score (%) without light irradiation [5, 12]: 0.0%
- Difference in depletion (under light irradiation - without light irradiation) NAL (%) [6, 7]: 0.3%
- Difference in depletion (under light irradiation - without light irradiation) NAL (%) [6, 8]: 1.4%
- Difference in depletion (under light irradiation - without light irradiation) NAL (%) [6, 9]: 4.4%
- NAL Depletion (%) under light irradiation [6, 13]: 0.3%
- NAL Depletion (%) under light irradiation [6, 14]: 1.4%
- NAL Depletion (%) under light irradiation [6, 15]: 4.4%
- NAL Depletion (%) without light irradiation [6, 10]: 0.0%
- NAL Depletion (%) without light irradiation [6, 11]: 0.0%
- NAL Depletion (%) without light irradiation [6, 12]: 0.0%

SMILES: Nc1ccc(S(N)(=O)=O)cc1 [3-4, Sulfanilamide]
- Difference in depletion (under light irradiation - without light irradiation) NAC (%) [1, 8]: 49.9%
- Difference in depletion (under light irradiation - without light irradiation) NAC (%) [1, 9]: 78.2%
- NAC Depletion (%) under light irradiation [1, 8]: 49.9%
- NAC Depletion (%) under light irradiation [1, 9]: 78.2%
- NAC Depletion (%) without light irradiation [1, 10]: 0.0%
- NAC Depletion (%) without light irradiation [1, 11]: 0.0%
- NAC Depletion (%) without light irradiation [1, 12]: 0.0%
- Difference in depletion (under light irradiation - without light irradiation) Average score (%) [2, 7]: 11.8%
- Difference in depletion (under light irradiation - without light irradiation) Average score (%) [2, 9]: 40.6%
- Average score (%) under light irradiation [2, 7]: 11.8%
- Average score (%) under light irradiation [2, 9]: 40.6%
- Average score (%) without light irradiation [2, 10]: 0.0%
- Average score (%) without light irradiation [2, 11]: 0.0%
- Average score (%) without light irradiation [2, 12]: 0.0%
- Difference in depletion (under light irradiation - without light irradiation) NAC (%) [3, 8]: 51.3%
- Difference in depletion (under light irradiation - without light irradiation) NAC (%) [3, 9]: 79.4%
- NAC Depletion (%) under light irradiation [3, 14]: 51.3%
- NAC Depletion (%) under light irradiation [3, 15]: 79.4%
- NAC Depletion (%) without light irradiation [3, 10]: 0.0%
- NAC Depletion (%) without light irradiation [3, 11]: 0.0%
- NAC Depletion (%) without light irradiation [3, 12]: 0.0%
- Difference in depletion (under light irradiation - without light irradiation) NAL (%) [4, 7]: 2.4%
- Difference in depletion (under light irradiation - without light irradiation) NAL (%) [4, 8]: 1.8%
- Difference in depletion (under light irradiation - without light irradiation) NAL (%) [4, 9]: 3.1%
- NAL Depletion (%) under light irradiation [4, 7]: 2.4%
- NAL Depletion (%) under light irradiation [4, 8]: 1.8%
- NAL Depletion (%) under light irradiation [4, 9]: 3.1%
- NAL Depletion (%) without light irradiation [4, 10]: 0.0%
- NAL Depletion (%) without light irradiation [4, 11]: 0.0%
- NAL Depletion (%) without light irradiation [4, 12]: 0.0%
- Difference in depletion (under light irradiation - without light irradiation) Average score (%) [5, 7]: 10.2%
- Difference in depletion (under light irradiation - without light irradiation) Average score (%) [5, 9]: 39.7%
- Average score (%) under light irradiation [5, 13]: 10.2%
- Average score (%) under light irradiation [5, 15]: 39.7%
- Average score (%) without light irradiation [5, 10]: 0.0%
- Average score (%) without light irradiation [5, 11]: 0.0%
- Average score (%) without light irradiation [5, 12]: 0.0%
- Difference in depletion (under light irradiation - without light irradiation) NAL (%) [6, 7]: 0.0%
- Difference in depletion (under light irradiation - without light irradiation) NAL (%) [6, 8]: 0.3%
- Difference in depletion (under light irradiation - without light irradiation) NAL (%) [6, 9]: 0.0%
- NAL Depletion (%) under light irradiation [6, 13]: 0.0%
- NAL Depletion (%) under light irradiation [6, 14]: 0.3%
- NAL Depletion (%) under light irradiation [6, 15]: 0.0%
- NAL Depletion (%) without light irradiation [6, 10]: 0.0%
- NAL Depletion (%) without light irradiation [6, 11]: 0.0%
- NAL Depletion (%) without light irradiation [6, 12]: 0.0%

SMILES: CC(O)CCO (centres unmarked) [compound 46]
- Difference in depletion (under light irradiation - without light irradiation) NAC (%) ([1]; single compound): 0.2%
- NAC Depletion (%) [1, 16]: 0.0%
- Difference in depletion (under light irradiation - without light irradiation) Average score (%) ([2]; single compound): 0.1%
- Average score (%) [2, 16]: 0.1%
- Difference in depletion (under light irradiation - without light irradiation) NAC (%) [3]: 0.7%
- NAC Depletion (%) without light irradiation [3, 17]: 0.0%
- NAC Depletion (%) under light irradiation [3, 18]: 0.7%
- Difference in depletion (under light irradiation - without light irradiation) NAL (%) ([4]; single compound): −0.1%
- NAL Depletion (%) [4, 16]: 0.1%
- Difference in depletion (under light irradiation - without light irradiation) Average score (%) [5]: 0.4%
- Average score (%) under light irradiation [5, 19]: 0.4%
- Average score (%) without light irradiation [5, 19]: 0.0%
- Difference in depletion (under light irradiation - without light irradiation) NAL (%) [6]: 0.0%
- NAL Depletion (%) without light irradiation [6, 17]: 0.0%
- NAL Depletion (%) under light irradiation [6, 18]: 0.0%
